The values below come from EP3753932A1, “SUBSTITUTED BICYCLIC DERIVATIVES HAVING MULTIMODAL ACTIVITY AGAINST PAIN” (priority 2019, dated 2020).

Read-outs that look alike come from different tables or passages of the source.

In one assay the target is T1, Human µ-opioid receptor (Homo sapiens, UniProt P35372).
T1 construct: expressed in transfected cells; host or cells: CHO-K1
Briefly: Human µ-opioid receptor radioligand assay ([3H]-DAMGO). It counts as binding. Here is the method: Human µ-opioid receptor radioligand assay
Transfected CHO-K1 cell membranes (20 µg) were incubated with [^3H]-DAMGO (1 nM) in assay buffer containing Tris-HCl 50 mM, MgCl2 5 mM at pH 7.4. NBS (non-specific binding) was measured by adding 10 µM Naloxone. The binding of the test compound was measured at either one concentration (% inhibition at 1 or 10 µM) or five different concentrations to determine affinity values (Ki). Plates were incubated at 27 °C for 60 min. After the incubation period, the reaction mixture was then transferred to MultiScreen HTS, FC plates (Millipore), filtered and plates were washed 3 times with ice-cold 10 mM Tris-HCl (pH 7.4). Filters were dried and counted at approximately 40% efficiency in a MicroBeta scintillation counter (Perkin-Elmer) using EcoScint liquid scintillation cocktail.

Assay [1] concerns the target Human α2δ-1 subunit of Cav2.2 calcium channel (Homo sapiens, UniProt P54289). As to the kind of experiment: Human α2δ-1 subunit of Cav2.2 calcium channel assay ([3H]-Gabapentin binding). The method, then: Human α2δ-1 subunit of Cav2.2 calcium channel assay
Human α2δ-1 enriched membranes (2.5 µg) were incubated with 15 nM of radiolabeled [3H]-Gabapentin in assay buffer containing Hepes-KOH 10mM, pH 7.4. NSB (non specific binding) was measured by adding 10 µM pregabalin. The binding of the test compound was measured at either one concentration (% inhibition at 1 or 10 µM) or five different concentrations to determine affinity values (Ki). After 60 min incubation at 27 °C, binding reaction was terminated by filtering through Multiscreen GF/C (Millipore) presoaked in 0.5 % polyethyleneimine in Vacuum Manifold Station, followed by 3 washes with ice-cold filtration buffer containing 50 mM Tris-HCl, pH 7.4. Filter plates were dried at 60 °C for 1 hour and 30 µl of scintillation cocktail were added to each well before radioactivity reading. Readings were performed in a Trilux 1450 Microbeta radioactive counter (Perkin Elmer).

Where [2] appears, read: transfected CHO-K1 cell membranes, [3H]-DAMGO 1 nM, read-out: µ-binding.
[3] abbreviates: human α2δ-1 enriched membranes, [3H]-Gabapentin 15 nM, read-out: α2δ-1 binding.

T1 sequence (P35372 whole entry): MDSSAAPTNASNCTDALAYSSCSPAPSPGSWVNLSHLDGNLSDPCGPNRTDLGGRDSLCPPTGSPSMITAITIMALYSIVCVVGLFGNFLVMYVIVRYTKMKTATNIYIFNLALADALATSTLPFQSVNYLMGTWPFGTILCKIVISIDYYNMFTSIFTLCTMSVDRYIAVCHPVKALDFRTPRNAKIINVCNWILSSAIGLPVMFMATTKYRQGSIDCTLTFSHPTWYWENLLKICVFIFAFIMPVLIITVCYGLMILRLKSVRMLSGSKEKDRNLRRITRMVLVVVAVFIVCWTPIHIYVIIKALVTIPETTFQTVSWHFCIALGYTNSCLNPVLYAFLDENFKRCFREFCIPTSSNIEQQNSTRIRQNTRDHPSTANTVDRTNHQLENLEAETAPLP
Sequence of Human α2δ-1 subunit of Cav2.2 calcium channel (P54289 25-1103): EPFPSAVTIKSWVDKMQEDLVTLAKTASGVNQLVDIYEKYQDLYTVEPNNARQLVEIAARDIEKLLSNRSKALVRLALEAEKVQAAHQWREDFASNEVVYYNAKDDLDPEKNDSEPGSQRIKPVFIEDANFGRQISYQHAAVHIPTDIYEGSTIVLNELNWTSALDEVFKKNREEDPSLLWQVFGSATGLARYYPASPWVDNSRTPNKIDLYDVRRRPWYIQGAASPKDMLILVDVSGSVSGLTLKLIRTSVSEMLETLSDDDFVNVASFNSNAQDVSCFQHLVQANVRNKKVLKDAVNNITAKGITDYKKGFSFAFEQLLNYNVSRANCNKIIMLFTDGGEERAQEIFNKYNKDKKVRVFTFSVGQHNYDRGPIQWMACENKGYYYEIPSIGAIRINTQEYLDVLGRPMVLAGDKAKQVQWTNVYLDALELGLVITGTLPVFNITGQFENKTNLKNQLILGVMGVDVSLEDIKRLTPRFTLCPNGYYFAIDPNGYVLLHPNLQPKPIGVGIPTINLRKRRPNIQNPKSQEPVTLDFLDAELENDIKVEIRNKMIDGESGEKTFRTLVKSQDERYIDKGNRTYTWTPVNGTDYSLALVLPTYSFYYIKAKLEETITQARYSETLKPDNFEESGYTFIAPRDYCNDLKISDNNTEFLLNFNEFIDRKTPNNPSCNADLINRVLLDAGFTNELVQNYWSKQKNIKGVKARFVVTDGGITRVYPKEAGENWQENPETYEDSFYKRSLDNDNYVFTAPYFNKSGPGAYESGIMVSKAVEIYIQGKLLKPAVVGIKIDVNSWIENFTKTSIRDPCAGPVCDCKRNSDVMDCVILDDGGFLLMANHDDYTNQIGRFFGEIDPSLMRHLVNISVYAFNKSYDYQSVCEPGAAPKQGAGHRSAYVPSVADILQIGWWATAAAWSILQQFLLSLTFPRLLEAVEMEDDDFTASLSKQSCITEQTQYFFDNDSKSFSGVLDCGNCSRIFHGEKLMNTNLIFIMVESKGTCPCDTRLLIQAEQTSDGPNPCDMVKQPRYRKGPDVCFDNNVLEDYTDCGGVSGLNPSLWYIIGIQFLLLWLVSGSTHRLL

For `CCCC(c1ccc2cc(N3CCC(c4cccc(O)c4)(N(C)C)CC3)ccc2c1)N1C[C@@H](C)N[C@@H](C)C1` (stereo partly drawn) [Example 1, 3-(4-(Dimethylamino)-1-(6-(1-((3S,5R)-3,5-dimethylpiperazin-1-yl)butyl)naphthalen-2-yl)piperidin-4-yl)phenol], the Ki at Human µ-opioid receptor (setting [2]) is below 100 nM; in assay [1], above 5000 nM.
Take `CCCC(c1cnc2cc(N3CCC(c4cccc(O)c4)(N(C)C)CC3)ccc2c1)N1C[C@@H](C)N[C@@H](C)C1` (stereo partly drawn) [Example 2, 3-(4-(Dimethylamino)-1-(3-(1-((3S,5R)-3,5-dimethylpiperazin-1-yl)butyl)quinolin-7-yl)piperidin-4-yl)phenol]: the Ki was below 100 nM at Human µ-opioid receptor and 500 to 5000 nM in assay [1] (setting [3]).
As to `CCCC(c1ccc2cc(N3CCC(c4cccc(O)c4)(N(C)C)CC3)ccc2n1)N1C[C@@H](C)N[C@@H](C)C1` (stereo partly drawn) [Example 3, 3-(4-(Dimethylamino)-1-(2-(1-((3S,5R)-3,5-dimethylpiperazin-1-yl)butyl)quinolin-6-yl)piperidin-4-yl)phenol], the Ki is below 100 nM at Human µ-opioid receptor and 500 to 5000 nM in assay [1] (setting [3]).
The like results for `CCC[C@H](c1cnc2cc(N3CCC(c4cccc(O)c4)(N(C)C)CC3)ccc2c1)N1C[C@@H](C)N[C@@H](C)C1` [Example 4, 3-(4-(Dimethylamino)-1-(3-((R)-1-((3S,5R)-3,5-dimethylpiperazin-1-yl)butyl)quinolin-7-yl)piperidin-4-yl)phenol] were, in that order, below 100 nM and 500 to 5000 nM.
Take `CCC[C@@H](c1cnc2cc(N3CCC(c4cccc(O)c4)(N(C)C)CC3)ccc2c1)N1C[C@@H](C)N[C@@H](C)C1` [Example 5, 3-(4-(Dimethylamino)-1-(3-((S)-1-((3S,5R)-3,5-dimethylpiperazin-1-yl)butyl)quinolin-7-yl)piperidin-4-yl)phenol]: the Ki on Human µ-opioid receptor is below 100 nM; in assay [1] (setting [3]), above 5000 nM.
Take `CCCC(c1cnc2cc(CN3CCC(c4cccc(O)c4)(N(C)C)CC3)ccc2c1)N1C[C@@H](C)N[C@@H](C)C1` (stereo partly drawn) [Example 6, 3-(4-(Dimethylamino)-1-((3-(1-((3S,5R)-3,5-dimethylpiperazin-1-yl)butyl)quinolin-7-yl)methyl)piperidin-4-yl)phenol]: the values for the Ki (at Human µ-opioid receptor (setting [2]); in assay [1]) were below 100 nM and below 500 nM, respectively.
For `CCCC(c1ccc2cc(CN3CCC(c4cccc(O)c4)(N(C)C)CC3)ccc2n1)N1C[C@@H](C)N[C@@H](C)C1` (stereo partly drawn) [Example 7, 3-(4-(Dimethylamino)-1-((2-(1-((3S,5R)-3,5-dimethylpiperazin-1-yl)butyl)quinolin-6-yl)methyl)piperidin-4-yl)phenol], in that order: below 100 nM and below 500 nM.
The like results for `CCC[C@H](c1cnc2cc(CN3CCC(c4cccc(O)c4)(N(C)C)CC3)ccc2c1)N1C[C@@H](C)N[C@@H](C)C1` [Example 8, 3-(4-(Dimethylamino)-1-((3-((R)-1-((3S,5R)-3,5-dimethylpiperazin-1-yl)butyl)quinolin-7-yl)methyl)piperidin-4-yl)phenol] were, in that order, below 100 nM and below 500 nM.
As for `CCC[C@@H](c1cnc2cc(CN3CCC(c4cccc(O)c4)(N(C)C)CC3)ccc2c1)N1C[C@@H](C)N[C@@H](C)C1` [Example 9, 3-(4-(Dimethylamino)-1-((3-((S)-1-((3S,5R)-3,5-dimethylpiperazin-1-yl)butyl)quinolin-7-yl)methyl)piperidin-4-yl)phenol], the figures for the Ki (at Human µ-opioid receptor; in assay [1] (setting [3])) were below 100 nM and 500 to 5000 nM, respectively.
Consider `CCC[C@H](c1ccc2cc(CN3CCC(c4cccc(O)c4)(N(C)C)CC3)ccc2n1)N1C[C@@H](C)N[C@@H](C)C1` [Example 10, 3-(4-(Dimethylamino)-1-((2-((R)-1-((3S,5R)-3,5-dimethylpiperazin-1-yl)butyl)quinolin-6-yl)methyl)piperidin-4-yl)phenol], for which the figures for the Ki (on Human µ-opioid receptor (setting [2]); in assay [1]) were below 100 nM and below 500 nM, respectively.
Regarding `CCC[C@@H](c1ccc2cc(CN3CCC(c4cccc(O)c4)(N(C)C)CC3)ccc2n1)N1C[C@@H](C)N[C@@H](C)C1` [Example 11, 3-(4-(Dimethylamino)-1-((2-((S)-1-((3S,5R)-3,5-dimethylpiperazin-1-yl)butyl)quinolin-6-yl)methyl)piperidin-4-yl)phenol], the Ki was below 100 nM on Human µ-opioid receptor and 500 to 5000 nM in assay [1] (setting [3]).
As for `CCC[C@H](c1cnc2cc(CN3CCC(c4ccccc4)(N(C)C)CC3)ccc2c1)N1C[C@@H](C)N[C@@H](C)C1` [Example 12, 1-((3-((R)-1-((3S,5R)-3,5-Dimethylpiperazin-1-yl)butyl)quinolin-7-yl)methyl)-N,N-dimethyl-4-phenylpiperidin-4-amine], the Ki on Human µ-opioid receptor (setting [2]) is 100 to 500 nM; in assay [1], below 500 nM.
Consider `CCC[C@@H](c1cnc2cc(CN3CCC(c4ccccc4)(N(C)C)CC3)ccc2c1)N1C[C@@H](C)N[C@@H](C)C1` [Example 13, 1-((3-((S)-1-((3S,5R)-3,5-Dimethylpiperazin-1-yl)butyl)quinolin-7-yl)methyl)-N,N-dimethyl-4-phenylpiperidin-4-amine], for which the Ki was 100 to 500 nM on Human µ-opioid receptor and above 5000 nM in assay [1] (setting [3]).
For `CCCC(c1cnc2ccc(N3CCC(c4cccc(O)c4)(N(C)C)CC3)cc2c1)N1C[C@@H](C)N[C@@H](C)C1` (stereo partly drawn) [Example 14, 3-(4-(Dimethylamino)-1-(3-(1-((3S,5R)-3,5-dimethylpiperazin-1-yl)butyl)quinolin-6-yl)piperidin-4-yl)phenol], the Ki is above 500 nM at Human µ-opioid receptor (setting [2]) and below 500 nM in assay [1].
The like results for `CCCC(c1cnc2ccc(CN3CCC(c4cccc(O)c4)(N(C)C)CC3)cc2c1)N1C[C@@H](C)N[C@@H](C)C1` (stereo partly drawn) [Example 15, 3-(4-(Dimethylamino)-1-((3-(1-((3S,5R)-3,5-dimethylpiperazin-1-yl)butyl)quinolin-6-yl)methyl)piperidin-4-yl)phenol] were, in that order, below 100 nM and below 500 nM.
Consider `CCC[C@H](c1cnc2ccc(CN3CCC(c4cccc(O)c4)(N(C)C)CC3)cc2c1)N1C[C@@H](C)N[C@@H](C)C1` [Example 16, 3-(4-(Dimethylamino)-1-((3-((R)-1-((3S,5R)-3,5-dimethylpiperazin-1-yl)butyl)quinolin-6-yl)methyl)piperidin-4-yl)phenol], for which the Ki on Human µ-opioid receptor (setting [2]) was below 100 nM; in assay [1], below 500 nM.
In the case of `CCC[C@@H](c1cnc2ccc(CN3CCC(c4cccc(O)c4)(N(C)C)CC3)cc2c1)N1C[C@@H](C)N[C@@H](C)C1` [Example 17, 3-(4-(Dimethylamino)-1-((3-((S)-1-((3S,5R)-3,5-dimethylpiperazin-1-yl)butyl)quinolin-6-yl)methyl)piperidin-4-yl)phenol], the Ki on Human µ-opioid receptor was below 100 nM; in assay [1] (setting [3]), above 5000 nM.
For `CCC[C@H](c1cnc2ccc(CN3CCC(c4ccccc4)(N(C)C)CC3)cc2c1)N1C[C@@H](C)N[C@@H](C)C1` [Example 18, 1-((3-((R)-1-((3S,5R)-3,5-Dimethylpiperazin-1-yl)butyl)quinolin-6-yl)methyl)-N,N-dimethyl-4-phenylpiperidin-4-amine], in that order: 100 to 500 nM and 500 to 5000 nM.
Turning to `CCC[C@@H](c1cnc2ccc(CN3CCC(c4ccccc4)(N(C)C)CC3)cc2c1)N1C[C@@H](C)N[C@@H](C)C1` [Example 19, 1-((3-((S)-1-((3S,5R)-3,5-Dimethylpiperazin-1-yl)butyl)quinolin-6-yl)methyl)-N,N-dimethyl-4-phenylpiperidin-4-amine], the Ki on Human µ-opioid receptor was below 100 nM; in assay [1] (setting [3]) it was above 5000 nM.
`CCCC(c1cc2ccc(N3CCC(c4cccc(O)c4)(N(C)C)CC3)cc2nc1CC)N1C[C@@H](C)N[C@@H](C)C1` (stereo partly drawn) [Example 20, 3-(4-(Dimethylamino)-1-(3-(1-((3S,5R)-3,5-dimethylpiperazin-1-yl)butyl)-2-ethylquinolin-7-yl)piperidin-4-yl)phenol]: the Ki was below 100 nM at Human µ-opioid receptor (setting [2]) and below 500 nM in assay [1].
For `CCCC(c1cc2ccc(CN3CCC(c4cccc(O)c4)(N(C)C)CC3)cc2nc1CC)N1C[C@@H](C)N[C@@H](C)C1` (stereo partly drawn) [Example 21, 3-(4-(Dimethylamino)-1-((3-(1-((3S,5R)-3,5-dimethylpiperazin-1-yl)butyl)-2-ethylquinolin-7-yl)methyl)piperidin-4-yl)phenol], in that order: below 100 nM and below 500 nM.
Consider `CCCC(c1cc2cc(CN3CCC(c4cccc(O)c4)(N(C)C)CC3)ccc2nc1CC)N1C[C@@H](C)N[C@@H](C)C1` (stereo partly drawn) [Example 22, 3-(4-(Dimethylamino)-1-((3-(1-((3S,5R)-3,5-dimethylpiperazin-1-yl)butyl)-2-ethylquinolin-6-yl)methyl)piperidin-4-yl)phenol], for which the Ki on Human µ-opioid receptor was below 100 nM; in assay [1] (setting [3]) it was 500 to 5000 nM.
As to `CCC[C@H](c1cc2ccc(CN3CCC(c4cccc(O)c4)(N(C)C)CC3)cc2nc1CC)N1C[C@@H](C)N[C@@H](C)C1` [Example 23, 3-(4-(Dimethylamino)-1-((3-((R)-1-((3S,5R)-3,5-dimethylpiperazin-1-yl)butyl)-2-ethylquinolin-7-yl)methyl)piperidin-4-yl)phenol], the results for the Ki (at Human µ-opioid receptor (setting [2]); in assay [1]) were below 100 nM and below 500 nM, respectively.
